In patent US20230137562A1, “TAU AGGREGATION INHIBITORS” (priority 2017, published 2023):
Ends that are not written are not given here. Peptide text beside a SMILES is read from it. TAMRA = tetramethyl rhodamine dye

Legend:
Tau40P301L protein = molecular target: T1, Tau40P301L protein (Homo sapiens, UniProt P10636, P618L); experiment: biochemical; conditions: IC50 (μM), Tau40 assay
T1 construct: His; made in house; host or cells: E. coli BL21
Procedure: The following describes the experimental method used to evaluate the IC50 of Tau amyloid inhibition by the peptide inhibitors described above. The physical setup of inhibitor peptides in these dose responses is done automatically with an 8-span head on a BioMek3000 liquid handler into Costar optically 96-well clear bottom black plates. Inhibitor peptides are kept frozen at −80° C. in 100% dimethylsulfoxide (DMSO) solution at a concentration of 20 mM and thawed immediately before the assay. The Biomek makes two serial dilutions of a single inhibitor for a duplicate 6-point dose response curve. This is followed by addition a 5×reaction buffer. The final reaction buffer concentration in the assay is 50 mM MES, pH 6.8, 125 mM NaCl, 10 μM Heparin, 50 μM ThT. The Tau substrate is added by a 96-head Multimek liquid handler making a 4:10 dilution of Tau40P301L protein to which DTT is added directly before setting up the assay. The P301 L mutant of tau is associated with features of human tauopathies (Comb et al., supra; Lewis et al., Nature Genetics 25: 402-405 (2000)). The final concentrations of Tau40P301L and DTT in the assay is 2.5 μM and 5 mM, respectively. Amyloid formation is measured by monitoring Thioflavin T (ThT) fluorescence every 10 minutes with excitation and emission wavelengths of 440 and 485 nm using fluorescence plate readers. The assay plates are kept in the plate reader during the whole duration of the assay, and incubated at 37° C. with continuous shaking for 24 hours. Plate reader models Genios and Spectrafluor Plus produced by Tecan are used and data is acquired using Magellan software. The calculation of IC50 is done by an automatic algorithm developed using the R statistical programing language. Briefly, the algorithm uses data exported in excel format from the plate reader to average the cumulative ThT fluorescence for each inhibitor concentration in the 6-point dose response. The IC50 is calculated as the midpoint of a sigmoid curve fitted to the correlation of normalized ThT fluorescence and inhibitor concentration.

Ac-VQIINK-NH2 = molecular target: T2, Ac-VQIINK-NH2 (Homo sapiens, UniProt P10636); experiment: Inhibition of VQIINK aggregation with peptide inhibitors (ThT); format: biochemical
T2 construct: made in house; host or cells: chemical peptide synthesis
Procedure: The following describes the experimental method used to evaluate the IC50 of aggregation of VQIINK (SEQ ID NO:220) inhibition by the peptide inhibitors described above. The peptide sequence comprising Ac-VQIINK-NH2 (C-terminal amidated (SEQ ID NO: 220)) is prepared using the peptide synthetic method described above. The Ac-VQIINK-NH2 (SEQ ID NO: 220) is stored at 10 mM in 100% DMSO at −80° C., and an aliquot volume sufficient for a single aggregation assay plate is removed. The stock aggregation buffer (5×) is prepared with the following: 250 mM NaPhosphate (pH 8.0), 125 mM KCl, and 500 micromolar ThioflavinT (ThT). The aggregation assay is conducted with shaking, at room temperature, on a plate reader model FLX-800 by BioTek. Water for primary Ac-VQIINK-NH2 (SEQ ID NO: 220) dissolution is cooled to 4 degrees Celsius (7.245 milliliters). Buffer is added from the 5×stock (40 microliters, final volume in assay plate is 130 microliters, final buffer concentrations 50 millimolar NaPO4 (pH 8.0); 25 milllimolar KCl; and 100 micromolar ThioflavinT). The assay plate is cooled to 4 degrees Celsius. The Ac-VQIINK-NH2 (105 microliters (SEQ ID NO: 220)) is added to the chilled water (final volume of 7.350 milliliters), this is added into a pooled reservoir, and using a 96-channel robotic pipettor, 70 microliters diluted Ac-VQIINK-NH2 (SEQ ID NO: 220) is added to the assay plate to achieve a final concentration of 50 micromolar in a 200 microliter final assay volume (per well). Data is acquired using Magellan software. The calculation of IC50 is done by an automatic algorithm developed using the R statistical programing language. Briefly, the algorithm uses data exported in excel format from the plate reader to average the cumulative ThT fluorescence for each inhibitor concentration in the 6-point dose response. The IC50 is calculated as the midpoint of a sigmoid curve fitted to the correlation of normalized ThT fluorescence and inhibitor concentration.

His-Tau40P301L Tau = His-Tau40P301L Tau (UniProt P10636-8 1-441); experiment: cell-based or functional assay
[1] = molecular target: TauRD (P301S)-Nluc and TauRD (P301S)-Cluc split luciferase compliment pair (human, UniProt P10636-8 244-372; P10636-8 244-372); experiment: cell-based or functional assay
Sequence of TauRD (P301S)-Nluc and TauRD (P301S)-Cluc split luciferase compliment pair (P10636 561-689 P618S, chain 1 of 2): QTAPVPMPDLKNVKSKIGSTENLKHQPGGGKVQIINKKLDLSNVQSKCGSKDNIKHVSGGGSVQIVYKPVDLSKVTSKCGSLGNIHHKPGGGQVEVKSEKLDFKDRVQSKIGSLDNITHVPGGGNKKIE
Sequence of TauRD (P301S)-Nluc and TauRD (P301S)-Cluc split luciferase compliment pair (P10636 561-689 P618S, chain 2 of 2): as the sequence (P10636 561-689 P618S, chain 1 of 2) above

T1 sequence (P10636 1-441 isoform P10636-8 P301L): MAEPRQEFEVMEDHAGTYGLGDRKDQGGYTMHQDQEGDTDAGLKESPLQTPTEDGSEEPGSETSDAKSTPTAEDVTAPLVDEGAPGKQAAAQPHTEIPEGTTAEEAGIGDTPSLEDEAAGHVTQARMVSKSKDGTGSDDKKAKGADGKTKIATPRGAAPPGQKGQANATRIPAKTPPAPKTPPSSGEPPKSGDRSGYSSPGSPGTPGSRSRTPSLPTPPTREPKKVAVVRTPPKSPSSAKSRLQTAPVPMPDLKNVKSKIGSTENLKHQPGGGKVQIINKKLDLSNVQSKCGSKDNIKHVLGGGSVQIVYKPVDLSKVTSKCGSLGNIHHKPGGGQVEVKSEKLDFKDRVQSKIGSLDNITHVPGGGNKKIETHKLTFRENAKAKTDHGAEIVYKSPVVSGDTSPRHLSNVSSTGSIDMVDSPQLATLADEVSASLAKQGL
Sequence of His-Tau40P301L Tau (P10636 other isoform, or with tags, fused parts or gaps limits assumed): as the sequence (P10636 1-441 isoform P10636-8 P301L) above

Molecule	IC50 (Tau40P301L protein)	IC50 (Ac-VQIINK-NH2)	other results
CC[C@H](C)[C@H](NC(=O)[C@H](CCCNC(=N)N)NC(=O)[C@@H](NC(=O)[C@@H](N)Cc1c[nH]c2ccccc12)[C@@H](C)CC)C(=O)N[C@@H](CCCNC(=N)N)C(=O)N[C@@H](Cc1ccc(O)cc1)C(=O)N[C@@H](Cc1c[nH]c2ccccc12)C(=O)O [compound 152] (H-WIRIRYW-OH)	2.6 µM	6.02 µM	–
CC[C@H](C)[C@H](NC(=O)[C@H](CCCNC(=N)N)NC(=O)[C@@H](N)Cc1c[nH]c2ccccc12)C(=O)N[C@@H](Cc1c[nH]c2ccccc12)C(=O)N[C@@H](C)C(=O)N[C@@H](CCCNC(=N)N)C(=O)N[C@@H](Cc1ccc(O)cc1)C(=O)N[C@@H](Cc1c[nH]c2ccccc12)C(=O)O [compound 163] (H-WRIWARYW-OH)	2.95 µM	–	–
CC[C@H](C)[C@H](NC(=O)[C@H](CCCNC(=N)N)NC(=O)[C@@H](NC(=O)[C@H](Cc1c[nH]c2ccccc12)NC(=O)[C@@H](N)Cc1c[nH]c2ccccc12)[C@@H](C)CC)C(=O)N[C@@H](CCCNC(=N)N)C(=O)N[C@@H](Cc1ccc(O)cc1)C(=O)N[C@@H](Cc1c[nH]c2ccccc12)C(=O)N[C@@H](CC(C)C)C(=O)O [compound 65] (H-WWIRIRYWL-OH)	1.31 µM	4.88 µM	–
CC[C@H](C)[C@H](NC(=O)[C@H](Cc1ccccc1)NC(=O)[C@@H](NC(=O)[C@H](CCCNC(=N)N)NC(=O)[C@@H](N)Cc1c[nH]c2ccccc12)[C@@H](C)CC)C(=O)N[C@@H](CCCNC(=N)N)C(=O)N[C@@H](Cc1c[nH]c2ccccc12)C(=O)O [compound 136] (H-WRIFIRW-OH)	–	9.13 µM	–
CC[C@H](C)[C@H](NC(=O)[C@H](Cc1c[nH]c2ccccc12)NC(=O)[C@@H](NC(=O)[C@H](CCCNC(=N)N)NC(=O)[C@@H](N)CC(C)C)[C@@H](C)CC)C(=O)N[C@@H](CCCNC(=N)N)C(=O)N[C@@H](Cc1ccc(O)cc1)C(=O)N[C@@H](CC(C)C)C(=O)O [compound 155] (H-LRIWIRYL-OH)	–	1.74 µM	–
CC[C@H](C)[C@H](NC(=O)[C@@H](N)CCCNC(=N)N)C(=O)N[C@@H](CCCNC(=N)N)C(=O)N[C@@H](CC(C)C)C(=O)N[C@@H](Cc1c[nH]c2ccccc12)C(=O)N[C@@H](Cc1ccc(O)cc1)C(=O)N[C@@H](Cc1c[nH]c2ccccc12)C(=O)O [compound 60] (H-RIRLWYW-OH)	8.01 µM	–	–
CC[C@H](C)[C@H](NC(=O)[C@H](C)NC(=O)[C@@H](N)Cc1c[nH]c2ccccc12)C(=O)N[C@@H](CCCNC(=N)N)C(=O)N[C@H](C(=O)N[C@@H](CCCNC(=N)N)C(=O)N[C@@H](Cc1c[nH]c2ccccc12)C(=O)O)[C@@H](C)CC [compound 124] (H-WAIRIRW-OH)	–	1.94 µM	–
CC[C@H](C)[C@H](NC(=O)[C@H](CCCNC(=N)N)NC(=O)[C@@H](N)Cc1c[nH]c2ccccc12)C(=O)N[C@@H](Cc1c[nH]c2ccccc12)C(=O)N[C@@H](CC(C)C)C(=O)N[C@@H](CCCNC(=N)N)C(=O)N[C@@H](Cc1ccc(O)cc1)C(=O)N[C@@H](Cc1c[nH]c2ccccc12)C(=O)O [compound 17] (H-WRIWLRYW-OH)	–	2.32 µM	–
{TAMRA}-RRRRRRRRRGGSGGWRLKVRWW [[TAMRA]-RRRRRRRRR-GGSGG-WRLKVRWW]	–	–	IC50 (µM), Tau40 assay-Modified peptides (ThT) (His-Tau40P301L Tau): 7.3 µM; EC50 (µM), HEK cell assay, split luciferase complementation [1]: 8.2 µM
{TAMRA}-RRRRRRRRRRGGSGGWRIWIRYW [[TAMRA]-RRRRRRRRRR-GGSGG-WRIWIRYW]	–	–	IC50 (µM), Tau40 assay-Modified peptides (ThT) (His-Tau40P301L Tau): 12.6 µM; EC50 (µM), HEK cell assay, split luciferase complementation [1]: 4.1 µM
RRRRRRRRRGGSGGLFYLRLT [RRRRRRRRR-GGSGG-LFYLRLT]	–	–	EC50 (µM), HEK cell assay, split luciferase complementation [1]: 9.6 µM
